Earlier results, collected in patent US10376519B2, “Tricyclic lactams for use in HSPC-sparing treatments for Rb-positive abnormal cellular proliferation” (G1 Therapeutics, Inc., priority 2014, dated 2019).

What was measured:
[1] = in vivo
[2] = Grade 3/4 neutropenia and leukopenia, clinical trial studies

T1/2 [1]: roughly 26.7 hours
patients requiring a dose interruption [2]: 71%
patients requiring a dose reduction [2]: 35%
Compound: CC(=O)c1c(C)c2cnc(Nc3ccc(N4CCNCC4)cn3)nc2n(C2CCCC2)c1=O [palbociclib, 6-acetyl-8-cyclopentyl-5-methyl-2-(5-piperazin-1-yl-pyridin-2-ylammino)-8H-pyrido-[2,3-d]-pyrimidin-7-one]
